Laboratory results reported in patent publication US10000498B2, “Selective proton coupled folate transporter and folate receptor, and GARFTase inhibitor compounds and methods of using the same” (Duquesne University of the Holy Spirit, priority 2008, dated 2018).
“Also recorded” adds a separate entry of the source.

What was measured:
KB cells = assay: Nucleoside/AICA protection from growth inhibition in KB cells; type: cell-based, human
[1] = molecular target: T1, purified recombinant mouse GARFTase (Mus musculus, UniProt Q64737); assay: In vitro GARFTase inhibition assay; type: biochemical
T1 sequence (Q64737 2-1010 limits assumed): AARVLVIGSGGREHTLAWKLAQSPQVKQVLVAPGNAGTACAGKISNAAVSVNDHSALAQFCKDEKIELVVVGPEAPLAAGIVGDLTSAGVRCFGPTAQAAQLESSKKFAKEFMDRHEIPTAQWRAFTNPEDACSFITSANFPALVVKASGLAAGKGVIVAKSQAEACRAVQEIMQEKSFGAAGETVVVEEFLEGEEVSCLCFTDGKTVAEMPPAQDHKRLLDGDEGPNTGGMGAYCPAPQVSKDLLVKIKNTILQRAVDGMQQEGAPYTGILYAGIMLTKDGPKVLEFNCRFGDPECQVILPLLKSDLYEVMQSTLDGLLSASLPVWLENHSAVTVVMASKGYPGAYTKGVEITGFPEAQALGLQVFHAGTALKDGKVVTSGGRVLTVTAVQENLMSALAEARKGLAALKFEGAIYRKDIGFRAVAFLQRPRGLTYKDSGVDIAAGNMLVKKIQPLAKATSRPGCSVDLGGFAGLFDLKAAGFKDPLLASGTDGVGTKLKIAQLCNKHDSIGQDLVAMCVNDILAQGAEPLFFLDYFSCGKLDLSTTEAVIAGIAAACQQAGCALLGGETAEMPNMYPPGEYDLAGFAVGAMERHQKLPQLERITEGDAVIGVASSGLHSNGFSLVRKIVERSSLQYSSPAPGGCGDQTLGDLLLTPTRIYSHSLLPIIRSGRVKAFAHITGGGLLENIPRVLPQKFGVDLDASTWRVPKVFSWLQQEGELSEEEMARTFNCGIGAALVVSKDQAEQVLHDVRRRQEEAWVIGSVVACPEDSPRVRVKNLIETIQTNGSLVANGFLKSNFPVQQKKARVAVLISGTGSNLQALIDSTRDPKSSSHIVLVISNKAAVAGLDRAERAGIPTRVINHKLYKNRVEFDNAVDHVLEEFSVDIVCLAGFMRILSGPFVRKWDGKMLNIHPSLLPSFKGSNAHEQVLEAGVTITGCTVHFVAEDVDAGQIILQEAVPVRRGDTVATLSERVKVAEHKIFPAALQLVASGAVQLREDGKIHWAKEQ

[2] = system: human KB cervical tumors as xenografts; assay: In vivo evaluation in advanced stage KB tumor xenograft; set-up: species or system SCID female mice
Method: SCID female mice bearing advanced stage human KB cervical tumors as xenografts (xenograft tumors) were administered compound AAG154353 of the present invention intravenously at various doses and schedules.
Mice were maintained on a Folic Acid deficient diet (Harlan-Teklad Diet #00434; Madison, Wis.) exclusively for approximately three weeks at the start of treatment. […] Thus, significant antitumor activity was detected. Toxicity as reflected in weight loss was modest.

GARFTase = molecular target: T2, GARFTase (Homo sapiens, UniProt P22102); assay: In situ GARFTase assay (14C-glycine incorporation into formyl glycinamide ribonucleotide); type: cell-based; details: mean IC50, SEM in parentheses
T2 construct: In the in situ GARFTase assay, incorporation of ^14C-glycine into formyl glycinamide ribonucleotide was measured; endogenous in cells
T2 sequence (P22102 1-1010): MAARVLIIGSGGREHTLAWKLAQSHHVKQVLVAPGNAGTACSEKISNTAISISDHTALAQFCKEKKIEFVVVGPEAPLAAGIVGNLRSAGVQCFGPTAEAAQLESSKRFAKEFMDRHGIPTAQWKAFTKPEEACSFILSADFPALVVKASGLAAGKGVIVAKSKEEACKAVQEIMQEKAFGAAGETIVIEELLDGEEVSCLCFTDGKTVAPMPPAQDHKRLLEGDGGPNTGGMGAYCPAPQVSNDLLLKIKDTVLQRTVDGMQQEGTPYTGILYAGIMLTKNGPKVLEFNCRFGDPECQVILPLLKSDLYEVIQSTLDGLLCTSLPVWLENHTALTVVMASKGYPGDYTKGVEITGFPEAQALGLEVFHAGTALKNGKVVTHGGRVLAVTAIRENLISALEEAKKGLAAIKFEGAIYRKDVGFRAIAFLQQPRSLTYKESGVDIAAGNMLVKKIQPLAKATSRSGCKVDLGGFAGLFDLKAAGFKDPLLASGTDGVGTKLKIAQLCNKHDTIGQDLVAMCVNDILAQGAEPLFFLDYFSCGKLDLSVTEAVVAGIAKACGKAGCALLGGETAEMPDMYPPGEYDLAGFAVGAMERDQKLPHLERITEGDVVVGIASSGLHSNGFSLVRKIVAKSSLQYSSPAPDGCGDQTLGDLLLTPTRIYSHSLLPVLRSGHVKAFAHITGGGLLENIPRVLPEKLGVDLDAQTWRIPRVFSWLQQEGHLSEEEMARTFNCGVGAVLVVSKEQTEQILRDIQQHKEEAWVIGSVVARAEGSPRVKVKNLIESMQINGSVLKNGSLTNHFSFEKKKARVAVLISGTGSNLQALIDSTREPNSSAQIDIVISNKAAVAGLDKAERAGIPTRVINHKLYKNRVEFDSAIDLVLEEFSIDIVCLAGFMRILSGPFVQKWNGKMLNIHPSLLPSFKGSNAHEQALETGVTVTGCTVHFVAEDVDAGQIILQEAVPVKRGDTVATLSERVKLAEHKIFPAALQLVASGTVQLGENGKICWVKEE

FRα = FRα (Homo sapiens, UniProt P15328); assay: FRα binding affinity relative to folic acid; details: folic acid set to 1
Chain of FRα (P15328 25-234): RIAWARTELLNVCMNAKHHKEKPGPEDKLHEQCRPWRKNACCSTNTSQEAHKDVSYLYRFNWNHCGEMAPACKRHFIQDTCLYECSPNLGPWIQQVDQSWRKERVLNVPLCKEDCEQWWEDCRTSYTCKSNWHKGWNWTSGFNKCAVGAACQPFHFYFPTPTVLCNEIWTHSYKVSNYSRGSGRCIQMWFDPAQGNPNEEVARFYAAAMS

[3] = system: PC43-10 cells (hRFC-expressing Chinese hamster ovary); assay: Growth inhibition of hRFC-expressing PC43-10 CHO cells; type: cell-based
[4] = Q2dx4 starting day 43, 500 mg/kg total dose IV

Nc1nc2[nH]c(CCCCc3ccc(C(=O)N[C@@H](CCC(=O)O)C(=O)O)s3)cc2c(=O)[nH]1 [AAG154353, (S)-2-({5-[4-(2-amino-4-oxo-4,7-dihydro-3H-pyrrolo[2,3-d]pyrimidin-6-yl)-butyl]thiophene-2-carbonyl}-amino)-pentanedioic acid]
Effect of 5-amino-4-imidazolecarboxamide (AICA) on growth inhibition of KB cells (KB cells; AICA 320 μM): completely protected | Effect of adenosine on growth inhibition of KB cells (KB cells; adenosine 60 μM): completely protective | Effect of thymidine on growth inhibition of KB cells (KB cells; thymidine 10 μM): did not alter the growth inhibitory effects | IC50 [1]: 60 nM | Tumor response of late stage KB xenografts ([2]; IV, three mice on various dose/schedules, tumors 446 to 650 mg at start, folic acid deficient diet): tumors regressed completely | Toxicity as reflected in weight loss ([2]; IV, various dose/schedules): modest | Tumor size [2, 4]: 63 mg | Tumor-free status [2, 4]: tumor free up to day 60 | Time mouse tumor free ([2]; Q3dx4 starting day 37, 750 mg/kg total dose IV): 30 days | Time mouse tumor free ([2]; Q4dx3 starting day 48, 187.5 mg/kg total dose IV): 30 days | IC50 (GARFTase): 0.63 nM | FRα binding affinity compared to folic acid (FRα): very high binding affinities | Growth inhibition of hRFC-expressing PC43-10 cells (in words) [3]: Neither AAG154353 and AAG154360 showed appreciable growth inhibition; also recorded: nearly complete lack of drug activity | IC50 ([3]; Cricetulus griseus, PC43-10, read-out: Growth inhibition (IC50, nM) hRFC PC43-10): > 1000 nM
